Measured values from US8962608B2, “Cycloalkylnitrile pyrazole carboxamides as janus kinase inhibitors” (Merck Sharp & Dohme Corp., priority 2011, dated 2015).

How the values were obtained:
[1] = target: JAK2 (recombinant purified GST-tagged catalytic domain) (Homo sapiens (Human), UniProt O60674);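 note: biochemical JAK kinase assay with HTRF detection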
[2] = target: JAK1 (recombinant purified GST-tagged catalytic domain) (Homo sapiens (Human), UniProt P23458);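 note: biochemical assay with HTRF read-out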
Sequence of JAK1 (recombinant purified GST-tagged catalytic domain) (P23458 875-1153): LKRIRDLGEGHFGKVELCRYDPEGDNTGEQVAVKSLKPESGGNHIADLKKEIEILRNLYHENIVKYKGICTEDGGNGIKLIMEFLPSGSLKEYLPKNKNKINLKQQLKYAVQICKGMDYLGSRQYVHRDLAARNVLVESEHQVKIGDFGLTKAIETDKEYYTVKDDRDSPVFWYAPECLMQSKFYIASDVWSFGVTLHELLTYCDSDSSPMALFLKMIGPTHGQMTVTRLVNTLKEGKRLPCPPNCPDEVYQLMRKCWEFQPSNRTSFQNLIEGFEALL

Sequence of JAK2 (recombinant purified GST-tagged catalytic domain) (O60674 849-1124): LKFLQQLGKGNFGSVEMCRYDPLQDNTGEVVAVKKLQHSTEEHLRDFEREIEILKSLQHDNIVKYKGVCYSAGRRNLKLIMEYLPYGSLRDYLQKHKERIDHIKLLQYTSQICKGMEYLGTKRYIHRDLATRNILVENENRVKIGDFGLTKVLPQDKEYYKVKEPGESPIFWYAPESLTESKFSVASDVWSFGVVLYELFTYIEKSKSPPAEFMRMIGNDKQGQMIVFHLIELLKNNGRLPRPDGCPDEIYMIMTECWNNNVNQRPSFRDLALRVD

Structure (SMILES)	IC50 [1] [nM]	IC50 [2] [nM]
N#C[C@H]1CC[C@@H](NCc2ccccc2)C[C@@H]1n1cc(C(N)=O)c(Nc2ccc(F)cc2)n1 (mixture of isomers) [Example 6-6, 1-{[(1S,2S,5R) and (1R,2R,5S)]-5-(benzylamino)-2-cyanocyclohexyl}-3-[(4-fluorophenyl)amino]-1H-pyrazole-4-carboxamide]	170	11
N#C[C@H]1C[C@@H](N2CCC2)CC[C@@H]1n1cc(C(N)=O)c(Nc2ccc(OC(F)F)nc2)n1 (single isomer, unassigned) [Example 28-3, 1-[(1S,2S,4S or 1R,2R,4R)-4-(azetidin-1-yl)-2-cyanocyclohexyl]-3-{[6-(difluoromethoxy)pyridin-3-yl]amino}-1H-pyrazole-4-carboxamide]	87	5
N#C[C@H]1C[C@H](N2CCC2)CC[C@@H]1n1cc(C(N)=O)c(Nc2ccc(OC(F)F)nc2)n1 (single isomer, unassigned) [Example 28-2, 1-[(1S,2S,4R or 1R,2R,4S)-4-(azetidin-1-yl)-2-cyanocyclohexyl]-3-{[6-(difluoromethoxy)pyridin-3-yl]amino}-1H-pyrazole-4-carboxamide]	67	4
N#C[C@H]1C[C@@H](NCC2(O)CC2)CC[C@@H]1n1cc(C(N)=O)c(Nc2ccc(Cl)cc2)n1 (single isomer, unassigned) [Example 28-220, 3-[(4-chlorophenyl)amino]-1-[(1S,2S,4S or 1R,2R,4R)-2-cyano-4-{[(1-hydroxycyclo-propyl)methyl]amino}cyclohexyl]-1H-pyrazole-4-carboxamide]	30	2
CC(C)(C)OC(=O)C1CC[C@@H](C#N)[C@@H](n2cc(C(N)=O)c(Nc3ccccc3)n2)C1 (mixture of isomers) [Example 12-2, (3S,4R and 3R,4S)-tert-butyl 3-(4-carbamoyl-3-(phenylamino)-1H-pyrazol-1-yl)-4-cyanocyclohexanecarboxylate]	> 1500	257
COCCN[C@H]1CCC(n2cc(C(N)=O)c(Nc3ccc(S(=O)(=O)C(F)(F)F)cc3)n2)[C@@H](C#N)C1 (stereo partly drawn) [Example 27-16, 1-{(1S,2S,4S and1R,2R,4R)-2-cyano-4-[(2-methoxyethyl)amino]cyclohexyl}-3-({4-[(trifluoromethyl)sulfonyl]phenyl)amino)-1H-pyrazole-4-carboxamide]	35	1
CC(C)(C)OC(=O)C1CC[C@H](C#N)[C@@H](n2cc(C(N)=O)c(Nc3ccccc3)n2)C1 (mixture of isomers) [Example 12-1, (3S,4S and 3R,4R)-tert-butyl 3-(4-carbamoyl-3-(phenylamino)-1H-pyrazol-1-yl)-4-cyanocyclohexanecarboxylate]	50	7
CS(=O)(=O)c1ccc(Nc2nn([C@H]3CCC[C@H]3C#N)cc2C(N)=O)cc1 (mixture of isomers) [Example 1-5, 1-{[(1S,2R) and (1R,2S)]-2-cyanocyclopentyl]}-3-{[4-(methylsulfonyl)phenyl]amino}-1H-pyrazole-4-carboxamide]	82	5
N#C[C@H]1CCCC[C@@H]1n1cc(C(N)=O)c(Nc2cc(Cl)cc(Cl)c2)n1 (single isomer, unassigned) [Example 17-54, 1-[(1S,2S or 1R, 2R)-2-cyanocyclohexyl]-3-[(3,5-dichlorophenyl)amino]-1H-pyrazole-4-carboxamide]	119	18
N#C[C@H]1CC[C@H](NCc2ccccc2)C[C@@H]1n1cc(C(N)=O)c(Nc2ccc(F)cc2)n1 (mixture of isomers) [Example 6-4, 1-{[(1S,2S,5S) and (1R,2R,5R)]-5-(benzylamino)-2-cyanocyclohexyl}-3-[(4-fluorophenyl)amino]-1H-pyrazole-4-carboxamide]	55	4
N#C[C@H]1CC(F)CC[C@@H]1n1cc(C(N)=O)c(Nc2ccccc2)n1 (mixture of isomers) [Example 22-1, 1-[(1S,2S and 1R,2R)-2-Cyano-4-fluorocyclohexyl]-3-(phenylamino)-1H-pyrazole-4-carboxamide]	28	4
N#C[C@H]1CCCCC1n1cc(C(N)=O)c(Nc2ccc(S(=O)(=O)C(F)F)c(CO)c2)n1 (mixture of isomers) [Example 17-64, 1-[(1S,2S and 1R,2R )-2-cyanocyclohexyl]-3-({4-[(difluoromethyl)sulfonyl]-3-(hydroxymethyl)phenyl}amino)-1H-pyrazole-4-carboxamide]	14	2
N#C[C@@H]1CCCC(F)[C@@H]1n1cc(C(N)=O)c(Nc2ccccc2)n1 (some centres unmarked) [Example 23-2]	212	67
COC(=O)[C@H]1CCC(n2cc(C(N)=O)c(Nc3ccc(F)cc3)n2)[C@@H](C#N)C1 (some centres unmarked) [Example 7-2]	101	14
CN(C)[C@H]1CC[C@H](C#N)[C@@H](n2cc(C(N)=O)c(Nc3ccc(F)cc3)n2)C1 (mixture of isomers) [Example 6-1, 1-[(1S,2S,5S and 1R,2R,5R)-2-cyano-5-(dimethylamino)cyclohexyl]-3-[(4-fluorophenyl)amino]-1H-pyrazole-4-carboxamide]	> 1500	410
C[C@]1(C#N)CCCC[C@@H]1n1cc(C(N)=O)c(Nc2ccc(F)cc2)n1 (mixture of isomers) [Example 19-2, 1-((1S,2S and 1R,2R)-2-cyano-2-methylcyclohexyl)-3-((4-fluorophenyl)amino)-1H-pyrazole-4-carboxamide]	11	4
CC(C)(C)OC(=O)NCC1CC[C@H](C#N)[C@@H](n2cc(C(N)=O)c(Nc3ccc(F)cc3)n2)C1 (single isomer, unassigned) [Example 11-10, tert-butyl {[(1S or R,3S,4S) and (1R or S,3R,4R)]-3-{4-carbamoyl-3-[(4-fluorophenyl)amino]-1H-pyrazol-1-yl}-4-cyanocyclohexyl]methyl}carbamate]	1300	110
CC1(C)CC[C@@H](C#N)[C@@H](n2cc(C(N)=O)c(Nc3ccccc3)n2)C1 (mixture of isomers) [Example 11-2, 1-{[(1S,2R) and (1R,2S)]-2-Cyano-5,5-dimethylcyclohexyl}-3-(phenylamino)-1H-pyrazole-4-carboxamide]	50	11
N#C[C@@H]1CCC[C@@H]1n1cc(C(N)=O)c(Nc2ccccc2)n1 (mixture of isomers) [Example 1-1, 1-{[(1S,2R) and (1R,2S)]-2-cyanocyclopentyl]}-3-(phenylamino)-1H-pyrazole-4-carboxamide]	696	96
N#C[C@H]1CCC[C@@H]1n1cc(C(N)=O)c(Nc2ccccc2)n1 (mixture of isomers) [Example 1-2, 1-{[(1S,2S) and (1R,2R)]-2-cyanocyclopentyl]}-3-(phenylamino)-1H-pyrazole-4-carboxamide]	101	8
CC1(C)CC[C@H](C#N)[C@@H](n2cc(C(N)=O)c(Nc3ccccc3)n2)C1 (mixture of isomers) [Example 11-1, 1-{[(1S,2S) and (1R,2R)]-2-Cyano-5,5-dimethylcyclohexyl}-3-(phenylamino)-1H-pyrazole-4-carboxamide]	176	54

More lines, now with the values ahead:

IC50 [1] [nM]	IC50 [2] [nM]	Structure (SMILES)
34	1	CC1(C)C[N+](C)([C@H]2CC[C@H](n3cc(C(N)=O)c(Nc4ccc(Cl)cc4)n3)[C@@H](C#N)C2)C1 [Example 31-4, 1-[(1S,3S,4S)-4-{4-carbamoyl-3-[(4-chlorophenyl)amino]-1H-pyrazol-1-yl}-3-cyanocyclohexyl]-1,3,3-trimethylazetidinium]
45	6	CC1(C)CN(C(=O)[C@H]2CC[C@H](n3cc(C(N)=O)c(Nc4ccc(Cl)cc4)n3)[C@@H](C#N)C2)C1 (single isomer, unassigned) [Example 35-1, 3-(4-chlorophenylamino)-1-((1S,2S,4S or 1R,2R,4R)-2-cyano-4-(3,3-dimethylazetidine-1-carbonyl)cyclohexyl)-1H-pyrazole-4-carboxamide]
235	44	N#C[C@@H]1CCC2(C[C@H]1n1cc(C(N)=O)c(Nc3ccccc3)n1)OCCO2 (single isomer, unassigned) [Example 45-1, 1-[(7R,8R or 7S,8S)-8-Cyano-1,4-dioxaspiro[4.5]dec-7-yl]-3-(phenylamino)-1H-pyrazole-4-carboxamide]
290	9	CC1(C)CN(C(=O)[C@@H]2CC[C@@H](n3cc(C(N)=O)c(Nc4ccc(Cl)cc4)n3)[C@H](C#N)C2)C1 (single isomer, unassigned) [Example 35-2, 3-(4-chlorophenylamino)-1-((1R,2R,4R or 1S,2S,4S)-2-cyano-4-(3,3-dimethylazetidine-1-carbonyl)cyclohexyl)-1H-pyrazole-4-carboxamide]
4	0.85	N#C[C@@H]1CCC2(C[C@@H]1n1cc(C(N)=O)c(Nc3ccccc3)n1)OCCO2 (single isomer, unassigned) [Example 45-2, 1-[(7S,8R or 7R,8S)-8-Cyano-1,4-dioxaspiro[4.5]dec-7-yl]-3-(phenylamino)-1H-pyrazole-4-carboxamide]
308	147	N#C[C@@H]1CCC2(C[C@H]1n1cc(C(N)=O)c(Nc3ccccc3)n1)OCCO2 (single isomer, unassigned) [Example 45-3, 1-[(7R,8R or 7S,8S)-8-Cyano-1,4-dioxaspiro[4.5]dec-7-yl]-3-(phenylamino)-1H-pyrazole-4-carboxamide]
28	1	CC[N+]1([C@H]2CC[C@H](n3cc(C(N)=O)c(Nc4ccc(Cl)cc4)n3)[C@@H](C#N)C2)CCC1 [Example 31-3, 1-[(1S,3S,4S)-4-{4-carbamoyl-3-[(4-chlorophenyl)amino]-1H-pyrazol-1-yl}-3-cyanocyclohexyl]-1-ethylazetidinium]
